Test results reported in patent US20070093520A1, “Method of treatment of diarrhea-predominant irritable bowel syndrome in a subject” (priority 2005, published 2007).

System: diarrhea-predominant IBS subjects
Assay: 3007 Study: open-label 52-week safety study, adverse events and withdrawals
Conditions: C/C group

Compound: Cc1nccn1C[C@H]1CCc2c(c3cccc4c3n2CCC4)C1=O [cilansetron, (R)-(−)-4,5,6,8,9,10-hexahydro-10-[(2-methyl-1H-imidazol-1-yl)methyl]-11H-pyrido-[3,2,1-jk]-carbazol-11-one]
- TEAE: Labyrinthitis NOS: 2 (<1%) n (%)
- TEAE: Lacrimal Disorders: 2 (<1%) n (%)
- TEAE: Lactose Intolerance: 0 n (%)
- TEAE: Laryngeal and Adjacent Sites Disorders NEC (Excl Infections and Neoplasms): 2 (<1%) n (%)
- TEAE: Laryngitis NOS: 2 (<1%) n (%)
- TEAE: Leiomyoma NOS: 1 (<1%) n (%)
- TEAE: Lethargy: 0 n (%)
- TEAE: Leukopenia NOS: 2 (<1%) n (%)
- TEAE: Leukopenias NEC: 2 (<1%) n (%)
- TEAE: Libido Decreased: 0 n (%)
- TEAE: Lid, Lash and Lacrimal Structural Disorders (Excl Congenital): 1 (<1%) n (%)
- TEAE: Lipid Metabolism Disorder NOS: 1 (<1%) n (%)
- TEAE: Lipid Metabolism and Deposit Disorders NEC: 1 (<1%) n (%)
- TEAE: Lipoma NOS: 2 (<1%) n (%)
- TEAE: Lower Respiratory Tract Signs and Symptoms: 1 (<1%) n (%)
- TEAE: Lymphadenopathy: 1 (<1%) n (%)
- TEAE: Lymphangitis and Lymphatic Disorders NEC: 1 (<1%) n (%)
- TEAE: Meniere's Disease: 1 (<1%) n (%)
- TEAE: Menorrhagia*: 1 (<1%) n (%)
- TEAE: Menstruation Irregular*: 0 n (%)
- TEAE: Menstruation and Uterine Bleeding NEC*: 1 (<1%) n (%)
- TEAE: Menstruation with Decreased Bleeding*: 1 (<1%) n (%)
- TEAE: Menstruation with Increased Bleeding*: 2 (1%) n (%)
- TEAE: Mental Disorders NEC: 0 n (%)
- TEAE: Mental Status Changes: 0 n (%)
- TEAE: Metabolism and Nutrition Disorders: 11 (4%) n (%)
- TEAE: Middle Ear Disorders NEC: 1 (<1%) n (%)
- TEAE: Motion Sickness: 0 n (%)
- TEAE: Myocardial Infarction: 1 (<1%) n (%)
- TEAE: Nail and Nail Bed Conditions (Excl Infections and Infestations): 0 n (%)
- TEAE: Nasal Congestion and Inflammations: 7 (3%) n (%)
- TEAE: Neoplasms Benign Site Unspecified NEC: 1 (<1%) n (%)
- TEAE: Neoplasms Benign, Malignant and Unspecified (Incl Cysts and Polyps): 9 (4%) n (%)
- TEAE: Normal Pregnancy, Labour and Delivery*: 1 (<1%) n (%)
- TEAE: Ocular Disorders NEC: 0 n (%)
- TEAE: Ocular Nerve and Muscle Disorders: 0 n (%)
- TEAE: Oedema NEC: 4 (2%) n (%)
- TEAE: Oedema NOS: 0 n (%)
- TEAE: Oedema Peripheral: 4 (2%) n (%)
- TEAE: Ovarian Cancer NOS*: 1 (<1%) n (%)
- TEAE: Ovarian Cystadenofibroma*: 0 n (%)
- TEAE: Ovarian Neoplasms Benign*: 0 n (%)
- TEAE: Ovarian Neoplasms Malignant (Excl Germ Cell)*: 1 (<1%) n (%)
- TEAE: Pain NOS: 2 (<1%) n (%)
- TEAE: Pain and Discomfort NEC: 5 (2%) n (%)
- TEAE: Palpitations: 2 (<1%) n (%)
- TEAE: Panic Attack: 0 n (%)
- TEAE: Panic Symptoms: 0 n (%)
- TEAE: Papulosquamous Conditions: 0 n (%)
- TEAE: Paranasal Sinus Disorders (Excl Infections and Neoplasms): 6 (2%) n (%)
- TEAE: Paranasal Sinus Hypersecretion: 1 (<1%) n (%)
- TEAE: Partial Vision Loss: 0 n (%)
- TEAE: Pelvic Pain NOS: 0 n (%)
- TEAE: Penile Disorders NEC (Excl Erection and Ejaculation)*: 0 n (%)
- TEAE: Penile Haemorrhage*: 0 n (%)
- TEAE: Perception Disturbances: 0 n (%)
- TEAE: Peripheral Embolism NOS: 0 n (%)
- TEAE: Peripheral Embolism and Thrombosis: 0 n (%)
- TEAE: Peripheral Vascular Disorders NEC: 2 (<1%) n (%)
- TEAE: Pharyngitis: 3 (1%) n (%)
- TEAE: Polydipsia: 0 n (%)
- TEAE: Polyuria: 0 n (%)
- TEAE: Posterior Capsule Opacification: 0 n (%)
- TEAE: Postnasal Drip: 0 n (%)
- TEAE: Pregnancy NOS*: 1 (<1%) n (%)
- TEAE: Pregnancy, Puerperium and Perinatal Conditions: 1 (<1%) n (%)
- TEAE: Premenopause*: 0 n (%)
- TEAE: Premenstrual Syndrome*: 1 (<1%) n (%)
- TEAE: Productive Cough: 1 (<1%) n (%)
- TEAE: Prostate and Seminal Vesicles Infections and Inflammations*: 2 (2%) n (%)
- TEAE: Prostatitis*: 2 (2%) n (%)
- TEAE: Proteinuria: 1 (<1%) n (%)
- TEAE: Pruritus NEC: 3 (1%) n (%)
- TEAE: Pruritus NOS: 3 (1%) n (%)
- TEAE: Psoriasis: 0 n (%)
- TEAE: Psychiatric Disorders: 15 (6%) n (%)
- TEAE: Psychotic Disorder NEC: 0 n (%)
- TEAE: Psychotic Disorder NOS: 0 n (%)
- TEAE: Purine Metabolism Disorders NEC: 2 (<1%) n (%)
- TEAE: Pyrexia: 2 (<1%) n (%)
- TEAE: Rash Macular: 0 n (%)
- TEAE: Rash NOS: 4 (2%) n (%)
- TEAE: Rashes, Eruptions and Exanthems NEC: 4 (2%) n (%)
- TEAE: Rate and Rhythm Disorders NEC: 2 (<1%) n (%)
- TEAE: Refractive Errors NOS: 1 (<1%) n (%)
- TEAE: Refractive and Accommodative Disorders: 1 (<1%) n (%)
- TEAE: Renal Lithiasis: 3 (1%) n (%)
- TEAE: Renal and Urinary Disorders: 13 (5%) n (%)
- TEAE: Reproductive System and Breast Disorders: 12 (5%) n (%)
- TEAE: Reproductive Tract Signs and Symptoms NEC: 1 (<1%) n (%)
- TEAE: Respiratory Tract Congestion: 1 (<1%) n (%)
- TEAE: Respiratory Tract Disorders NEC: 1 (<1%) n (%)
- TEAE: Respiratory, Thoracic and Mediastinal Disorders: 28 (11%) n (%)
- TEAE: Retinal Detachment: 1 (<1%) n (%)
- TEAE: Retinal Structural Change, Deposit and Degeneration: 1 (<1%) n (%)
- TEAE: Rhinitis Allergic NOS: 3 (1%) n (%)
- TEAE: Rhinitis NOS: 3 (1%) n (%)
- TEAE: Rhinitis Seasonal: 1 (<1%) n (%)
- TEAE: Rosacea: 1 (<1%) n (%)
- TEAE: Rosaceas: 1 (<1%) n (%)
- TEAE: Seasonal Allergy: 4 (2%) n (%)
- TEAE: Sexual Desire Disorders: 0 n (%)
- TEAE: Sick Sinus Syndrome: 0 n (%)
- TEAE: Sinus Arrhythmia: 0 n (%)
- TEAE: Sinus Congestion: 5 (2%) n (%)
- TEAE: Skin Disorder NOS: 0 n (%)
- TEAE: Skin Injuries and Mechanical Dermatoses: 1 (<1%) n (%)
- TEAE: Skin Lesion NOS: 1 (<1%) n (%)
- TEAE: Skin Neoplasms Benign: 0 n (%)
- TEAE: Skin Neoplasms Malignant and Unspecified (Excl Melanoma): 2 (<1%) n (%)
- TEAE: Skin Ulcer: 0 n (%)
- TEAE: Skin and Subcutaneous Tissue Disorders: 14 (5%) n (%)
- TEAE: Skin and Subcutaneous Tissue Ulcerations: 0 n (%)
- TEAE: Social Circumstances: 0 n (%)
- TEAE: Soft Tissue Neoplasms Benign NEC: 3 (1%) n (%)
- TEAE: Strabismus: 0 n (%)
- TEAE: Stress Incontinence: 1 (<1%) n (%)
- TEAE: Stress Symptoms: 0 n (%)
- TEAE: Structural and Other Bile Duct Disorders: 0 n (%)
- TEAE: Sugar Intolerance (Excl Glucose Intolerance): 0 n (%)
- TEAE: Suicidal Ideation: 0 n (%)
- TEAE: Suicidal and Self-Injurious Behaviour: 0 n (%)
- TEAE: Supraventricular Arrhythmias: 1 (<1%) n (%)
- TEAE: Supraventricular Tachycardia: 0 n (%)
- TEAE: Surgical and Medical Procedures: 1 (<1%) n (%)
- TEAE: Sweating Increased: 0 n (%)
- TEAE: Swelling Face: 0 n (%)
- TEAE: Tachycardia NOS: 1 (<1%) n (%)
- TEAE: Tenderness NOS: 0 n (%)
- TEAE: Thrombocytopenia: 0 n (%)
- TEAE: Thrombocytopenias: 0 n (%)
- TEAE: Thrombophlebitis Superficial: 0 n (%)
- TEAE: Thyroid Disorders NEC: 1 (<1%) n (%)
- TEAE: Thyroid Hypofunction Disorders: 1 (<1%) n (%)
- TEAE: Thyroid Neoplasms: 0 n (%)
- TEAE: Thyroid Nodule: 0 n (%)
- TEAE: Tinnitus: 1 (<1%) n (%)
- TEAE: Total Fluid Volume Decreased: 1 (<1%) n (%)
- TEAE: Tympanic Membrane Disorder NOS: 0 n (%)
- TEAE: Tympanic Membrane Disorders (Excl Infections): 0 n (%)
- TEAE: Upper Respiratory Tract Signs and Symptoms: 3 (1%) n (%)
- TEAE: Urinary Abnormalities: 5 (2%) n (%)
- TEAE: Urinary Frequency: 2 (<1%) n (%)
- TEAE: Urinary Incontinence: 1 (<1%) n (%)
- TEAE: Urinary Retention: 1 (<1%) n (%)
- TEAE: Urinary Tract Lithiasis (Excl Renal): 1 (<1%) n (%)
- TEAE: Urinary Tract Signs and Symptoms NEC: 0 n (%)
- TEAE: Urine Abnormal NOS: 1 (<1%) n (%)
- TEAE: Urticaria NOS: 1 (<1%) n (%)
- TEAE: Urticarias: 1 (<1%) n (%)
- TEAE: Uterine Disorders NEC*: 2 (1%) n (%)
- TEAE: Uterine Fibroids*: 1 (<1%) n (%)
- TEAE: Uterine Neoplasms Benign*: 1 (<1%) n (%)
- TEAE: Uterine Neoplasms*: 2 (1%) n (%)
- TEAE: Uterine Polyp NOS*: 2 (1%) n (%)
- TEAE: Vaginal Cyst*: 1 (<1%) n (%)
- TEAE: Vaginal Lesion*: 1 (<1%) n (%)
- TEAE: Varicose Vein Ruptured: 2 (<1%) n (%)
- TEAE: Varicose Veins Non-Site Specific: 2 (<1%) n (%)
- TEAE: Vascular Disorders: 13 (5%) n (%)
- TEAE: Vascular Hypertensive Disorders NEC: 8 (3%) n (%)
- TEAE: Vascular Hypotensive Disorders: 0 n (%)
- TEAE: Ventricular Arrhythmias and Cardiac Arrest: 1 (<1%) n (%)
- TEAE: Ventricular Extrasystoles: 1 (<1%) n (%)
- TEAE: Vertigo: 1 (<1%) n (%)
- TEAE: Visual Acuity Reduced: 0 n (%)
- TEAE: Vitreous Disorder NOS: 0 n (%)
- TEAE: Vulvovaginal Cysts and Neoplasms*: 1 (<1%) n (%)
- TEAE: Vulvovaginal Dryness*: 0 n (%)
